Publication PMC11062922 (Nature Chemical Biology, 2023)
Read-outs that look alike come from different tables or passages of the source.

How the values were obtained:
ACVR2B = assay: Kinobeads competition binding: ACVR2B; parameters: species or system human; conditions: target ACVR2B
ADCK1 = target: T1, ADCK1 (Homo sapiens, UniProt Q86TW2); assay: Kinobeads competition binding: ADCK1; conditions: target ADCK1
T1 construct: endogenous in cells
T1 sequence (Q86TW2 1-530): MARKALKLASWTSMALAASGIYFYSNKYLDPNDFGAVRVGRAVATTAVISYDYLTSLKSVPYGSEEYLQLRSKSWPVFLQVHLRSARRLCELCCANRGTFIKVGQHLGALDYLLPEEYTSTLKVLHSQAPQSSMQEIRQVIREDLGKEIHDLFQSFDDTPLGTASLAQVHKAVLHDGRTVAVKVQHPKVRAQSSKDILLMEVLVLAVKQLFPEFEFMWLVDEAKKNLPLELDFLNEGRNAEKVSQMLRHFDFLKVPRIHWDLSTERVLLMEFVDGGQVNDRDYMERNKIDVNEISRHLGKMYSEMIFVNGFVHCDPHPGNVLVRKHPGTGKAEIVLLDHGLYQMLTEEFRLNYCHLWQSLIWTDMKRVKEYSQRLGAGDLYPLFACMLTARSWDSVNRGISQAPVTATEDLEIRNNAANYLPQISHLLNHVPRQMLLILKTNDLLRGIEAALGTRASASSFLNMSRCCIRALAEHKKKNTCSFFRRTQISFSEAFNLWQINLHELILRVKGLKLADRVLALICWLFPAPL
Description: Supplement 41589_2023_1459_MOESM4_ESM.xlsx, sheet "CATDS matrix" | column: ADCK1

BCR = target: T2, BCR (Homo sapiens, UniProt P00519+P11274); assay: Kinobeads competition binding: BCR; conditions: target BCR
T2 construct: endogenous in cells
Description: Supplement 41589_2023_1459_MOESM4_ESM.xlsx, sheet "CATDS matrix" | column: BCR

CAMK2G = target: T3, CAMK2G (Homo sapiens, UniProt Q13555); assay: Kinobeads competition binding: CAMK2G; conditions: target CAMK2G
T3 construct: endogenous in cells

CDC7 = target: T4, CDC7 (Homo sapiens, UniProt O00311); assay: Kinobeads competition binding: CDC7; conditions: target CDC7
T4 construct: endogenous in cells

CSNK1E = target: T5, CSNK1E (Homo sapiens, UniProt P49674); assay: Kinobeads competition binding: CSNK1E; conditions: target CSNK1E
T5 construct: endogenous in cells

FRK = target: T6, FRK (Homo sapiens, UniProt P42685); assay: Kinobeads competition binding: FRK; conditions: target FRK
T6 construct: endogenous in cells
Description: Supplement 41589_2023_1459_MOESM4_ESM.xlsx, sheet "CATDS matrix" | column: FRK

HSP90B1 = target: T7, HSP90B1 (Homo sapiens, UniProt P14625); assay: Kinobeads competition binding: HSP90B1; conditions: target HSP90B1;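 further: share of total target engagement due to this protein at one drug concentration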
T7 construct: endogenous in cells

ICK = assay: Kinobeads competition binding: ICK; parameters: species or system human; conditions: target ICK
JAK2 = assay: Kinobeads competition binding: JAK2; parameters: species or system human; conditions: target JAK2;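 further: target engagement share of this target among all targets at its Kdapp concentration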
LIMK2 = assay: Kinobeads competition binding: LIMK2; parameters: species or system human; conditions: target LIMK2
MAP3K12 = assay: Kinobeads competition binding: MAP3K12; parameters: species or system human; conditions: target MAP3K12
MAP4K2 = assay: Kinobeads competition binding: MAP4K2; parameters: species or system human; conditions: target MAP4K2
MAPK7 = assay: Kinobeads competition binding: MAPK7; parameters: species or system human; conditions: target MAPK7
MAPK8 = assay: Kinobeads competition binding: MAPK8; parameters: species or system human; conditions: target MAPK8
PHKG2 = target: T8, PHKG2 (Homo sapiens, UniProt P15735); assay: Kinobeads competition binding: PHKG2; conditions: target PHKG2
T8 construct: a mixture of lysates from five cancer cell lines; endogenous in cells
T8 sequence (P15735 1-406): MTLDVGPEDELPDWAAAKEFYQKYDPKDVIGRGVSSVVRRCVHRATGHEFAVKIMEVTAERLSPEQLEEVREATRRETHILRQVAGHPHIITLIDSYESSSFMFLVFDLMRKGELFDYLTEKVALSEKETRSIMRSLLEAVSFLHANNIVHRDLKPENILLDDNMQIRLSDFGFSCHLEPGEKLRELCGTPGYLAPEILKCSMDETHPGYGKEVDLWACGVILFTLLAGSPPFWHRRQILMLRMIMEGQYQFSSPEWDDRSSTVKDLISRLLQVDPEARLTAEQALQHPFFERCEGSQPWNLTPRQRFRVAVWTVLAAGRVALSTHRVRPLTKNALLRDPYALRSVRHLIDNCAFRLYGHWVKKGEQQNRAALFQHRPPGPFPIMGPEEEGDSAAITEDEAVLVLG

PKM = assay: Kinobeads competition binding: PKM; parameters: species or system human; conditions: target PKM
PKN3 = PKN3 (Homo sapiens, UniProt Q6P5Z2); assay: Kinobeads full dose-response competition binding: PKN3; parameters: endogenous in cells; conditions: for Relative Intensity 0.3nM: 0.3nM compound; for Relative Intensity 0.3nM / Relative Intensity 1nM / Relative Intensity 3nM / Relative Intensity 10nM / Relative Intensity 30nM / Relative Intensity 100nM / Relative Intensity 300nM / Relative Intensity 1000nM: DMSO = 1; for Relative Intensity 1nM: 1nM compound; for Relative Intensity 3nM: 3nM compound; for Relative Intensity 10nM: 10nM compound; for Relative Intensity 30nM: 30nM compound; for Relative Intensity 100nM: 100nM compound; for Relative Intensity 300nM: 300nM compound; for Relative Intensity 1000nM: 1000nM compound; for EC50: eight-dose curve fit;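 on all read-outs here: inhibitor pre-incubated 45 min at 4 °C in cell lysate (5 mg/ml protein), then competed against Kinobeads ε pulldown for 30 min, bound kinase quantified by nano LC–MS/MS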
[1] = Gene Name PKN3, EC50 with Correction, doses in nM, read-out: apparent Kd
[2] = Kinobeads full dose-response, read-out: Kdapp PKN3

T7 sequence (P14625 22-803): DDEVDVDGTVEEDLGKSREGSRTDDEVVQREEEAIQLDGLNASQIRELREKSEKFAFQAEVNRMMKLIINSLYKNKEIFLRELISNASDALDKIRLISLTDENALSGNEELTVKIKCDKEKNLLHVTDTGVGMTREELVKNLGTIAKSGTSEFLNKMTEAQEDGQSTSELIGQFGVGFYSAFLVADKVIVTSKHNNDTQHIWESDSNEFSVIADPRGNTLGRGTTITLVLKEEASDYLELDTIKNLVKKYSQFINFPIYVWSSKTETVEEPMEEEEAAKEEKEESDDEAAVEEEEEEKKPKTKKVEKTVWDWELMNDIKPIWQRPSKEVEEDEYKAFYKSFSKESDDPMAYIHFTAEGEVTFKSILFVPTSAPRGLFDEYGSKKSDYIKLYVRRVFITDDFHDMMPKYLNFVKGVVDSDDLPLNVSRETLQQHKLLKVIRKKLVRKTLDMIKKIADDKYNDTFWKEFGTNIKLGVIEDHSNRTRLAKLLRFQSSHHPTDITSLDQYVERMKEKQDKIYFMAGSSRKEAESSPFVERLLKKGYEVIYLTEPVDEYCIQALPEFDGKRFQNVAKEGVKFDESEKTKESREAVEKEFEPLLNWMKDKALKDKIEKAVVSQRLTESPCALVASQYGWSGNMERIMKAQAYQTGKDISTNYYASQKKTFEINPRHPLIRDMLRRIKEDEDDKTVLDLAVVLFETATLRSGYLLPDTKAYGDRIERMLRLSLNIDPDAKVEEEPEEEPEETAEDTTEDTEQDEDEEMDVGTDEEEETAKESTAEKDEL
T4 sequence (O00311 whole entry): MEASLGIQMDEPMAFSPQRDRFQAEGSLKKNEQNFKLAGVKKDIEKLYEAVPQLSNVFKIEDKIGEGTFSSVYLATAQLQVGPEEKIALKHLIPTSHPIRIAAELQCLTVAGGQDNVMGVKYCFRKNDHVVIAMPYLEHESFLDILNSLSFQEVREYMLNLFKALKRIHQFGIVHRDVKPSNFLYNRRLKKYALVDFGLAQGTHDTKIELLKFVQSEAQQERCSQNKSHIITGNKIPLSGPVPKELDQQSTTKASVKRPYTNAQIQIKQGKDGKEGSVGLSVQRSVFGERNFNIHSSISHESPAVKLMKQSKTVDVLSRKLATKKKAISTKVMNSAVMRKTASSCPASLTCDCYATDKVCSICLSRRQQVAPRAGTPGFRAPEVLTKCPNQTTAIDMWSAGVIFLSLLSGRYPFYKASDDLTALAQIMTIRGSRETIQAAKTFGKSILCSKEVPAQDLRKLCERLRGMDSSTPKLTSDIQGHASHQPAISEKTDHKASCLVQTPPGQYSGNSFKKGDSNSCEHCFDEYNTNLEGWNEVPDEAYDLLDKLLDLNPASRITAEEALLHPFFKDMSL
Chain of PKN3 (Q6P5Z2 whole entry): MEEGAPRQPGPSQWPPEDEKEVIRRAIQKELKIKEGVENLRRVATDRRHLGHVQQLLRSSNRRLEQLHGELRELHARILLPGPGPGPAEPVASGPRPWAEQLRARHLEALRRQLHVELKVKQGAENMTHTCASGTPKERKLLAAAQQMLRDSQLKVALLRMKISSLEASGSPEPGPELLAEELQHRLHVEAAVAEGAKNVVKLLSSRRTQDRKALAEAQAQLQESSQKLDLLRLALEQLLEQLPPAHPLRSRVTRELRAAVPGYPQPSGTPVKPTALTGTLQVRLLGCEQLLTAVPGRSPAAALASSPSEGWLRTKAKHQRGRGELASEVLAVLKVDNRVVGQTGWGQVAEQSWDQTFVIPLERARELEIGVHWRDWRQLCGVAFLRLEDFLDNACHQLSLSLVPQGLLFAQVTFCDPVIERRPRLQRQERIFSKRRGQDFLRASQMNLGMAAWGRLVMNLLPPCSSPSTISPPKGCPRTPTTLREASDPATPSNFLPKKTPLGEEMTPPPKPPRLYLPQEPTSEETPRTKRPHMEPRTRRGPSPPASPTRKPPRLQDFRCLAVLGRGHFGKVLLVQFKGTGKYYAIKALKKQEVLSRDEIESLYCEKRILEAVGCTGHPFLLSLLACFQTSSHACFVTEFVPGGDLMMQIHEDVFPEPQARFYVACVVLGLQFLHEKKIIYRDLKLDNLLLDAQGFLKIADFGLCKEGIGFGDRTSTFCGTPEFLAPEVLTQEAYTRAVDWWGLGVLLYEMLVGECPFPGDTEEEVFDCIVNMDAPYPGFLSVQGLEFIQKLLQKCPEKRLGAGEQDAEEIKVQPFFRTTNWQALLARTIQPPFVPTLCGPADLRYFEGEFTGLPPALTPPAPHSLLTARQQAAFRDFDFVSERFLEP
T2 sequence (P11274+P00519 fused): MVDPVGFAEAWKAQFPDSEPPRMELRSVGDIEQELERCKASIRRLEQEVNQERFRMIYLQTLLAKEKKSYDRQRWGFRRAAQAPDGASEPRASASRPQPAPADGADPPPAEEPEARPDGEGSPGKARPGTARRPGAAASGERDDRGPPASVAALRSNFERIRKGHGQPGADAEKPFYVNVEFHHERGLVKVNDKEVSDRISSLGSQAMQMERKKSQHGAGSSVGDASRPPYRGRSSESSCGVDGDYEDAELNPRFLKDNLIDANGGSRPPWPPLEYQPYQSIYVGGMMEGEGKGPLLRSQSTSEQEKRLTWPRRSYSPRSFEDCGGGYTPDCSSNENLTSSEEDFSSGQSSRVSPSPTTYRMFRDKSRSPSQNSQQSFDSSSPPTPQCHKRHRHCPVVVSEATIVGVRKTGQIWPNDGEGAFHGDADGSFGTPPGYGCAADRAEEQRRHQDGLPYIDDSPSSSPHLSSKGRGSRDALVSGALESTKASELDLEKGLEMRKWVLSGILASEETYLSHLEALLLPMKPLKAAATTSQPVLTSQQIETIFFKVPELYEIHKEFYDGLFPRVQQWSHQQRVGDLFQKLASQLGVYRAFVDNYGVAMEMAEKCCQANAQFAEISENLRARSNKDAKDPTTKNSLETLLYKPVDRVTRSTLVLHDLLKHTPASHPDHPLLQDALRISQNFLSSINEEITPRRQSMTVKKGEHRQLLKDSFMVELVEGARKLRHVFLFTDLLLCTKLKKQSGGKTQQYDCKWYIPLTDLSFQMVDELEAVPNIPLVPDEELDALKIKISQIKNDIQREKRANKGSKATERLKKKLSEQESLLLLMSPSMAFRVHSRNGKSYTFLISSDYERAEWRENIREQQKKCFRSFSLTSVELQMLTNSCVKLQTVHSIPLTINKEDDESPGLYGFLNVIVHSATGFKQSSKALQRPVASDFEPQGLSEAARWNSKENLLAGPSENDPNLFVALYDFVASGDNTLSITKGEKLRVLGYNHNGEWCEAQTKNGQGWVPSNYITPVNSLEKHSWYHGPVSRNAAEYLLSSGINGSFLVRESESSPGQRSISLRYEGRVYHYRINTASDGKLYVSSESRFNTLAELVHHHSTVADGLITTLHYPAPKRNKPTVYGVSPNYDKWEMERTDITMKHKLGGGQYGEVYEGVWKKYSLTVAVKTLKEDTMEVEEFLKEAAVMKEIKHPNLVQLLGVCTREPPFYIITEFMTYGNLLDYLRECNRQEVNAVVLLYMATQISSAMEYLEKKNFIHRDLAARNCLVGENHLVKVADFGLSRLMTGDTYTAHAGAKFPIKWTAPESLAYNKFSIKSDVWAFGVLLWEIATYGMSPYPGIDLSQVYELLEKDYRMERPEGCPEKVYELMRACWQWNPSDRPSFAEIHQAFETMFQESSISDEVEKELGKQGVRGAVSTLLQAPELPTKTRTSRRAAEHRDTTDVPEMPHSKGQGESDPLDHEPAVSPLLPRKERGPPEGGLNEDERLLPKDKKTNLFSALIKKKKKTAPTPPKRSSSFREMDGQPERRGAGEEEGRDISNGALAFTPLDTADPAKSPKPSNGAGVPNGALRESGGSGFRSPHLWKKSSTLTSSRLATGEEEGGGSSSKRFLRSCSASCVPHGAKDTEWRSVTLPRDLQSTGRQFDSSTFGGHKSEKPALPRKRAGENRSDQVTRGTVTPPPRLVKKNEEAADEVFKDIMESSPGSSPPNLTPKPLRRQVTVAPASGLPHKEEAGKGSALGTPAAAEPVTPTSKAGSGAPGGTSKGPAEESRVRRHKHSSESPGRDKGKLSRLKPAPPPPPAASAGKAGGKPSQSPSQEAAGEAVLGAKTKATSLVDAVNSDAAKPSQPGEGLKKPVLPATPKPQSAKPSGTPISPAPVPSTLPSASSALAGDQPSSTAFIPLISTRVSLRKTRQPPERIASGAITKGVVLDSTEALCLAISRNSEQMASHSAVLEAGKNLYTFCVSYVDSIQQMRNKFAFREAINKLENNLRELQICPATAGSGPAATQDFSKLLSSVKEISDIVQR
T6 sequence (P42685 whole entry): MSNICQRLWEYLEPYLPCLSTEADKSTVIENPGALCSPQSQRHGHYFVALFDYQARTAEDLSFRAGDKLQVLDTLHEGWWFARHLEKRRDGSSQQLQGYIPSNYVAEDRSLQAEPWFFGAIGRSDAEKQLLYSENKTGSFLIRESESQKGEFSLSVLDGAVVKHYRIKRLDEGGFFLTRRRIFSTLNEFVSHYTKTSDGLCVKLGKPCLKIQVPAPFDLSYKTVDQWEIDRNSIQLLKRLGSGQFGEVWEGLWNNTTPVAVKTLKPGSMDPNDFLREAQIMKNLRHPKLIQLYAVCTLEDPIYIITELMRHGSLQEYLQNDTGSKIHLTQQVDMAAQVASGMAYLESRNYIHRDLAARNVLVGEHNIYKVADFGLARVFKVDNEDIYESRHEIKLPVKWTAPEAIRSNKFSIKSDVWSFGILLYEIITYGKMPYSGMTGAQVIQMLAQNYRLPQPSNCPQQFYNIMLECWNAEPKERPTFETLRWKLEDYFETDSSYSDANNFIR

| SMILES | CATDS (ACVR2B) | CATDS (ADCK1) | CATDS (BCR) | CATDS (CAMK2G) | CATDS (CDC7) | CATDS (CSNK1E) | CATDS (FRK) | CATDS (HSP90B1) | CATDS (ICK) | CATDS (JAK2) | CATDS (LIMK2) | CATDS (MAP3K12) | CATDS (MAP4K2) | CATDS (MAPK7) | CATDS (MAPK8) | CATDS (PHKG2) | CATDS (PKM) | Relative Intensity 0.3nM (PKN3; Gene Name PKN3) | Relative Intensity 1nM (PKN3; Gene Name PKN3) | Relative Intensity 3nM (PKN3; Gene Name PKN3) | other results |
| --- | --- | --- | --- | --- | --- | --- | --- | --- | --- | --- | --- | --- | --- | --- | --- | --- | --- | --- | --- | --- | --- |
| CCc1cc2c(cc1N1CCC(N3CCOCC3)CC1)C(C)(C)c1[nH]c3cc(C#N)ccc3c1C2=O [Alectinib] | 0 | 0 | 0 | 0 | 0 | 0 | 0 | 0 | 0 | 0 | 0 | 0 | 0 | 0 | 0 | 0 | 0 | – | – | – | – |
| CN(C)C/C=C/C(=O)Nc1cc2c(Nc3ccc(F)c(Cl)c3)ncnc2cc1O[C@H]1CCOC1 [Afatinib] | – | 0 | 0 | – | – | 0 | 0 | 0 | – | – | – | – | – | – | – | – | – | – | – | – | – |
| NCc1ccc(-c2nc(-c3ccncc3)c(-c3ccc(Cl)c(O)c3)[nH]2)cc1 [SB-476429-A] | – | – | – | – | – | – | – | – | – | – | – | – | – | – | – | – | – | 1.299 | 1.281 | 1.311 | Relative Intensity 10nM (PKN3; Gene Name PKN3): 1.076; Relative Intensity 30nM (PKN3; Gene Name PKN3): 0.6326; Relative Intensity 100nM (PKN3; Gene Name PKN3): 0.3718; Relative Intensity 300nM (PKN3; Gene Name PKN3): 0; Relative Intensity 1000nM (PKN3; Gene Name PKN3): 0; Kd (PKN3; [1]): 38.4 nM; EC50 (PKN3; Gene Name PKN3, doses in nM): 38.4 nM; Kd (PKN3; [2]): 38 nM |
| Nc1ncnc2[nH]c(-c3ccccc3)nc12 [AH5015_KCGS] | 0 | 0 | 0.0268 | 0 | 0 | 0 | 0 | 0 | 0 | 0 | 0 | 0 | 0 | 0 | 0 | 0 | 0 | – | – | – | – |
| CCN1CCN(Cc2ccc(Nc3ncc(F)c(-c4cc(F)c5nc(C)n(C(C)C)c5c4)n3)nc2)CC1 [Abemaciclib] | 0 | 0.02486 | 0 | 0.09397 | 0 | – | 0 | 0 | 0 | 0 | 0 | 0 | 0 | 0 | 0 | 0 | 0 | – | – | – | – |
| CCn1c(-c2nonc2N)nc2c(C#CC(C)(C)O)nc(OCCN)cc21 [GSK902056A] | – | – | – | – | – | – | – | – | – | – | – | – | – | – | – | – | – | 1.0043 | 0.9527 | 0.8181 | Relative Intensity 10nM (PKN3; Gene Name PKN3): 0.5011; Relative Intensity 30nM (PKN3; Gene Name PKN3): 0.201; Relative Intensity 100nM (PKN3; Gene Name PKN3): 0; Relative Intensity 300nM (PKN3; Gene Name PKN3): 0; Relative Intensity 1000nM (PKN3; Gene Name PKN3): 0; Kd (PKN3; [1]): 10.2 nM; EC50 (PKN3; Gene Name PKN3, doses in nM): 10.2 nM; Kd (PKN3; [2]): 10 nM |
| N#CC1(c2ccc(NC(=O)c3cccnc3NCc3ccncc3)cc2)CCCC1 [Apatinib] | 0 | 0 | 0 | 0 | 0 | 0 | 0 | 0 | 0 | 0 | 0 | 0 | 0 | 0 | 0 | 0 | 0 | – | – | – | – |
| CCn1c(-c2nonc2N)nc2c(C#CC(C)(C)O)nc(OCCNC)cc21 [GSK949675A] | – | – | – | – | – | – | – | – | – | – | – | – | – | – | – | – | – | 1.302 | 1.271 | 1.02 | Relative Intensity 10nM (PKN3; Gene Name PKN3): 1.139; Relative Intensity 30nM (PKN3; Gene Name PKN3): 0.7655; Relative Intensity 100nM (PKN3; Gene Name PKN3): 0.7191; Relative Intensity 300nM (PKN3; Gene Name PKN3): 0; Relative Intensity 1000nM (PKN3; Gene Name PKN3): 0; Kd (PKN3; [1]): 89.8 nM; EC50 (PKN3; Gene Name PKN3, doses in nM): 89.8 nM; Kd (PKN3; [2]): 90 nM |
